Experimental data published in patent publication US6581606B2, “Method, apparatus and system for use in treating patient with a drug having an antineoplastic effect to optimize therapy and prevent an adverse drug response” (The Rx Files Corporation, priority 1999, dated 2003).

Conditions: human, in vivo
Experimental: A current dose of Taxol (paclitaxel) is 375 mg.
In this case, the prescriber would use the following information for the patient receiving Taxol: Current Dose 375 mg; Current Marker 660 (a unitless marker indicative of the current platelet count); Desired Marker 1,200 (a unitless marker indicative of where the prescriber wants to see the platelet count raised to); Previous Marker 640 (a unitless marker indicative of the patient's previous ANC).

Previous Marker (patient's previous ANC): 640
Compound: CC(=O)O[C@H]1C(=O)[C@@]2(C)[C@H]([C@H](OC(=O)c3ccccc3)[C@]3(O)C[C@H](OC(=O)[C@H](O)[C@@H](NC(=O)c4ccccc4)c4ccccc4)C(C)=C1C3(C)C)[C@]1(OC(C)=O)CO[C@@H]1C[C@@H]2O [Taxol, paclitaxel]
